SMILES strings stand for the structures.

The target in assay [1] is A-Raf kinase (SEQ. ID No: 1) (Homo sapiens (Human), UniProt P10398, Y301D/Y302D). Put plainly: Biochemical Assay for A-Raf (1). The conditions noted are these: Table J, assay version (1); read-out: ARAF (1) IC50. As for the experimental part: Biochemical Assay for A-Raf (1)
(§1) Activity of A-Raf kinase (SEQ. ID No: 1) was determined spectroscopically using a coupled pyruvate kinase/lactate dehydrogenase assay that continuously monitors the ATP hydrolysis-dependent oxidation of NADH (e.g., Schindler et al., Science, 2000, 289, 1938-1942). Assays were conducted in 384-well plates (100 μL final volume) using 5.55 nM A-Raf (Sigma), 1.5 units pyruvate kinase, 2.1 units lactate dehydrogenase, 1 mM phosphoenol pyruvate, 0.28 mM NADH, 30.1 nM MEK (SignalChem), and 1 mM ATP in assay buffer (100 mM Tris, pH 7.5, 15 mM MgCl2, 0.5 mM DTT, 0.1% octyl-glucoside, 0.002% (w/v) BSA, and 0.002% Triton X-100). Inhibition of A-Raf was measured by adding serial diluted test compound (final assay concentration of 1% DMSO). A decrease in absorption at 340 nm was monitored continuously for 6 h at 30° C. on a multi-mode microplate reader (BioTek). The reaction rate was calculated using the 4 to 5 h time frame. The reaction rate at each concentration of compound was converted to percent inhibition using controls (i.e., reaction with no test compound and reaction with a known inhibitor) and IC50 values were calculated by fitting a four-parameter sigmoidal curve to the data using Prism (GraphPad software).

Assay [2] concerns the target B-Raf kinase (SEQ. ID NO: 2) (Homo sapiens (Human), UniProt P15056). Put plainly: Biochemical Assay for B-Raf (1). The settings on record: Table J, assay version (1); read-out: BRAF (1) IC50. As for the experimental part: Biochemical Assay for B-Raf (1)
as §1, with “B-Raf” for “A-Raf”, “NO: 2)” for “No: 1)”, “0.13” for “5.55”, “Ph” for “pH”

Assay [3] addresses C-Raf kinase (SEQ. ID NO: 3) (Homo sapiens (Human), UniProt P04049, Y340D/Y341D). Put plainly: Biochemical Assay for C-Raf (1). The conditions noted are these: Table J, assay version (1); read-out: CRAF (1) IC50. The procedure:
Biochemical Assay for C-Raf (1)
as §1, with “C-Raf” for “A-Raf”, “NO: 3)” for “No: 1)”, “0.43” for “5.55”, “Ph” for “pH”

The target in assay [4] is B-Raf (V600E) (SEQ. ID NO: 4) kinase (Homo sapiens (Human), UniProt P15056, V600E). Put plainly: Biochemical Assay for B-Raf (V600E) (1). The conditions noted are these: Table J, BRAF V600E, assay version (1); read-out: BRAF VE (1) IC50. The procedure: Biochemical Assay for B-Raf (V600E) (1)
Activity of B-Raf (V600E) (SEQ. ID NO: 4) kinase was determined spectroscopically using a coupled pyruvate kinase/lactate dehydrogenase assay that continuously monitors the ATP hydrolysis-dependent oxidation of NADH (e.g., Schindler et al., Science, 2000, 289, 1938-1942). Assays were conducted in 384-well plates (100 μL final volume) using 0.03 nM B-Raf (SignalChem), 1.5 units pyruvate kinase, 2.1 units lactate dehydrogenase, 1 mM phosphoenol pyruvate, 0.28 mM NADH, 30.1 nM MEK (SignalChem), and 1 mM ATP in assay buffer (100 mM Tris, Ph 7.5, 15 mM MgCl2, 0.5 mM DTT, 0.1% octyl-glucoside, 0.002% (w/v) BSA, and 0.002% Triton X-100). Inhibition of B-Raf (V600E) was measured by adding serial diluted test compound (final assay concentration of 1% DMSO). A decrease in absorption at 340 nm was monitored continuously for 6 h at 30° C. on a multi-mode microplate reader (BioTek). The reaction rate was calculated using the 3 to 4 h time frame. The reaction rate at each concentration of compound was converted to percent inhibition using controls (i.e., reaction with no test compound and reaction with a known inhibitor) and IC50 values were calculated by fitting a four-parameter sigmoidal curve to the data using Prism (GraphPad software).

C-Raf kinase (SEQ. ID NO: 3), sequence (P04049 307-648 Y340D/Y341D): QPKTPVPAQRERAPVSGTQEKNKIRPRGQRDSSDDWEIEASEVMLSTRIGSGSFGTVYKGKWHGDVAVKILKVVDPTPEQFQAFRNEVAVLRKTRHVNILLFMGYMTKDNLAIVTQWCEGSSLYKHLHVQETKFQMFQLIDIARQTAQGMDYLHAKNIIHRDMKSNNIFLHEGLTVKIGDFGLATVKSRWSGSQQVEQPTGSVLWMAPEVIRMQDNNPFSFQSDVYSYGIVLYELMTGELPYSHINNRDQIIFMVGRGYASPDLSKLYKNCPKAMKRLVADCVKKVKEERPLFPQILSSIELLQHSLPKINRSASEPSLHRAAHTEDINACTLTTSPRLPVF
A-Raf kinase (SEQ. ID No: 1), sequence (P10398 other isoform, or with tags, fused parts or gaps Y301D (already in the parent)/Y302D (already in the parent)): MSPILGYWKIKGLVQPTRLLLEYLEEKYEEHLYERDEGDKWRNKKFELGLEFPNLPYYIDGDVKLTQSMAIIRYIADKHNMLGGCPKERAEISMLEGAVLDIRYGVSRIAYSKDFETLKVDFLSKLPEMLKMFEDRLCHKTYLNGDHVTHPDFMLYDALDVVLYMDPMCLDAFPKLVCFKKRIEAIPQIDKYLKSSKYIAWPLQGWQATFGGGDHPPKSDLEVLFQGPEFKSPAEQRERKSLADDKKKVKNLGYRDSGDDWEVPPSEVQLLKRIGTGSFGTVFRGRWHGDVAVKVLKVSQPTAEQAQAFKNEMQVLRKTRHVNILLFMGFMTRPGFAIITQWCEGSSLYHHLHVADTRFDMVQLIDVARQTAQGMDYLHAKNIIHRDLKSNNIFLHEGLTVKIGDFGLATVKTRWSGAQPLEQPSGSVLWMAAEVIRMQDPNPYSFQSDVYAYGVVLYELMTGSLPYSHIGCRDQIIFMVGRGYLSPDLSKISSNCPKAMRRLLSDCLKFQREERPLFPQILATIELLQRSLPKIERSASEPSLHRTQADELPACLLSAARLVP
B-Raf (V600E) (SEQ. ID NO: 4) kinase, sequence (P15056 416-766 V600E): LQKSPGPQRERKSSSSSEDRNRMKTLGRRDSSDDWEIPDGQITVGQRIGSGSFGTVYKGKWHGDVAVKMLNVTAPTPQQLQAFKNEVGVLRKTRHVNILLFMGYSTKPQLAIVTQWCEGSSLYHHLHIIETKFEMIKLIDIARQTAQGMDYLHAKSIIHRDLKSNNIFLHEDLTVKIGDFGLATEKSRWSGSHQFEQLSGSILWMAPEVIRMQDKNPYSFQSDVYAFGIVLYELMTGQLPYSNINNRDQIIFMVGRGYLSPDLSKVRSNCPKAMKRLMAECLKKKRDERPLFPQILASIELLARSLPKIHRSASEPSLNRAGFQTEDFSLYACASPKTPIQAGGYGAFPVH
B-Raf kinase (SEQ. ID NO: 2), sequence (P15056 416-766): as the sequence (P15056 416-766 V600E) above, with E185V counted along it

As for `CNC(=O)c1cc(-c2cncc(-c3cc(NC(=O)c4cc(C(F)(F)F)cc(CN(C)C)n4)ccc3C)n2)ccn1` [Example 147], the IC50 (in general, the point on the concentration scale where inhibition reaches its midpoint) is 1000 to 10000 nM in assay [1], 500 to 1000 nM in assay [2], 100 to 500 nM in assay [3] and ≤ 100 nM in assay [4].
Regarding `CNC(=O)c1cc(-c2cc(-c3cc(NC(=O)c4ccnc(C(F)(F)F)c4)ccc3C)nn(C)c2=O)ccn1` [Example 51], the IC50 in assay [1], in assay [2], in assay [3] and in assay [4] was 1000 to 10000 nM each time.
Take `Cc1ncc(NC(=O)C2CCOCC2)cc1-c1cccc(-c2cc(NC(=O)C3CC3)ncn2)c1` [Example 349]: the half-inhibitory concentration (IC50) in assay [1] is 1000 to 10000 nM; in assay [2], 1000 to 10000 nM; in assay [3], 500 to 1000 nM; in assay [4], 100 to 500 nM.
On to `COCCNc1cc(-c2cncc(-c3cc(NC(=O)c4ccnc(C(F)(F)F)c4)ccc3C)n2)ccn1` [Example 119], for which the IC50 was 1000 to 10000 nM in assay [1], 100 to 500 nM in assay [2], 100 to 500 nM in assay [3] and ≤ 100 nM in assay [4].
For `CCOc1ncc(-c2cc(NC(=O)c3ccnc(C(C)(C)C#N)c3)ccc2C)cc1-c1ccnc(C(=O)NC)c1` [Example 260], the IC50 in assay [1] was 1000 to 10000 nM; in assay [2], 100 to 500 nM; in assay [3] it was ≤ 100 nM; in assay [4], ≤ 100 nM.
For the molecule `CNC(=O)c1cc(-c2cc(-c3cc(NC(=O)c4ccnc(C(F)F)c4)c(F)cc3C)cc(=O)n2C)ccn1` [Example 115], the IC50 in assay [1] is 1000 to 10000 nM; in assay [2], 1000 to 10000 nM; in assay [3], 1000 to 10000 nM; in assay [4], 100 to 500 nM.
With `Cc1ncc(NC(=O)CC2COC2)cc1-c1nccc(-c2ccnc(NC(=O)C3CC3)c2)n1` [Example 355], the IC50 in assay [1], in assay [2], in assay [3] and in assay [4] was 1000 to 10000 nM each time.
As for `CNC(=O)c1cc(-c2cc(-c3cc(NC(=O)c4ccnc(C(F)(F)F)c4)ccc3C)cc(=O)n2C)ccn1` [Example 67], the IC50 is 1000 to 10000 nM in assay [1], 1000 to 10000 nM in assay [2], 500 to 1000 nM in assay [3] and ≤ 100 nM in assay [4].
`COCC(=O)Nc1cc(-c2nccc(-c3cc(NC(=O)c4ccnc(C(F)(F)F)c4)ccc3C)n2)ccn1` [Example 137]: the IC50 in assay [1] was 1000 to 10000 nM; in assay [2], ≤ 100 nM; in assay [3], ≤ 100 nM; in assay [4] it was ≤ 100 nM.
Take `CO[C@H]1CC[C@H](C(=O)Nc2cnc(C)c(-c3cccc(-c4ccnc(NC(=O)C5CC5)c4)n3)c2)CC1` [Example 343]: the IC50 in assay [1] was in the range of 1000 to 10000 nM; in assay [2] it was 1000 to 10000 nM; in assay [3], 500 to 1000 nM; in assay [4], 100 to 500 nM.
With `Cc1cc(F)c(NC(=O)c2ccnc(C(C)(C)C#N)c2)cc1-c1nccc(-c2ccnc(NC(=O)C3CC3)c2)n1` [Example 244], the IC50 is 100 to 500 nM in assay [1], ≤ 100 nM in assay [2], ≤ 100 nM in assay [3] and ≤ 100 nM in assay [4].
As to `Cc1ccc(NC(=O)c2ccnc(C(C)(C)C#N)c2)cc1-c1ccnc(-c2ccnc(NC(=O)C(C)(C)C)c2)c1` [Example 206], the IC50 in assay [1] is 1000 to 10000 nM; in assay [2], 100 to 500 nM; in assay [3], 100 to 500 nM; in assay [4] it was ≤ 100 nM.
In the case of `Cc1ccc(NC(=O)C2CCOC2)cc1-c1cccc(-c2cc(NC(=O)C3CC3)ncn2)c1` (centres unmarked) [Example 345], the IC50 is 1000 to 10000 nM in assay [1], 1000 to 10000 nM in assay [2], 100 to 500 nM in assay [3] and ≤ 100 nM in assay [4].
For `Cc1ncc(NC(=O)C2CCN(C)C2)cc1-c1cccc(-c2cc(NC(=O)C3CC3)ncn2)c1` (centres unmarked) [Example 351], the half-maximal inhibitory concentration (IC50) in assay [1] was in the range of 1000 to 10000 nM; in assay [2], 1000 to 10000 nM; in assay [3] it was 1000 to 10000 nM; in assay [4], 500 to 1000 nM.

The values are drawn from patent publication US12319655B2, “RAF kinase inhibitors and methods of use thereof” (Deciphera Pharmaceuticals, LLC, priority 2021, dated 2025).
